Reference: the supplement of paper PMC10307832

How the values were obtained:
Test in all cases: relative viability (nuclei count vs DMSO), 5 days (fraction); higher = more cells survive
[1] = compound: COc1cc2nccc(Oc3ccc(NC(=O)C4(C(=O)Nc5ccc(F)cc5)CC4)cc3)c2cc1OC [Cabozantinib] + O=C(c1cc(Cc2n[nH]c(=O)c3ccccc23)ccc1F)N1CCN(C(=O)C2CC2)CC1 [Olaparib] (partner 8 µM)
How it was run: (§1)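 Lung cancer cell lines in 1536-well plates got either a single drug or a fixed anchor-drug dose together with five library-drug doses (not always all listed) in √10 steps, by pin tool, on the day after seeding. Nuclei were counted after 5 days, and relative viability is the treated-to-vehicle ratio of nuclei counts. Values are medians of duplicate plates.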

[2] = compound: C1=CC(=CC=C1NC(=S)NNC2=C(C=C(C=C2[N+](=O)[O-])C(F)(F)F)[N+](=O)[O-])F [Kobe2602] + CC1(C)CCC(c2ccc(Cl)cc2)=C(CN2CCN(c3ccc(C(=O)NS(=O)(=O)c4ccc(N[C@H](CCN5CCOCC5)CSc5ccccc5)c(S(=O)(=O)C(F)(F)F)c4)cc3)CC2)C1 [Navitoclax] (partner 0.5 µM)
How it was run: as §1

[3] = compound: C1=CC(=CC=C1NC(=S)NNC2=C(C=C(C=C2[N+](=O)[O-])C(F)(F)F)[N+](=O)[O-])F [Kobe2602] + Cc1nc(NC(=O)N2CCC[C@H]2C(N)=O)sc1-c1ccnc(C(C)(C)C(F)(F)F)c1 [Alpelisib] (partner 2 µM)
How it was run: as §1

[4] = compound: O[C@@H](COc1cccc2ncccc12)CN1CCN([C@@H]2c3ccccc3[C@@H]3[C@H](c4ccccc42)C3(F)F)CC1 [Zosuquidar] + COc1cccc2cc(-c3nc([C@H]4CC[C@H](C(=O)O)CC4)n4ncnc(N)c34)[nH]c12 [OSI-027] (partner 0.5 µM)
How it was run: as §1

**Q.** How did the relative viability ([1]; first compound 0.02 µM) turn out when UMC-11 was run?
**A.** Its relative viability is 0.399.

**Q.** What about the relative viability ([1]; first compound 0.06325 µM) of the same cell line?
**A.** The relative viability was 0.304.

**Q.** What about the relative viability ([1]; first compound 0.2 µM) of the same cell line?
**A.** The relative viability was 0.502.

**Q.** And the relative viability ([1]; first compound 0.6325 µM)?
**A.** The relative viability was 0.312.

**Q.** And the relative viability ([1]; first compound 2 µM)?
**A.** The relative viability was 0.391.

**Q.** And the relative viability ([2]; first compound 0.2 µM)?
**A.** The relative viability was 0.322.

**Q.** And the relative viability ([2]; first compound 0.6325 µM)?
**A.** Its relative viability is 0.327.

**Q.** What about the relative viability ([2]; first compound 2 µM) of the same cell line?
**A.** The relative viability was 0.292.

**Q.** What about the relative viability ([2]; first compound 6.325 µM) of the same cell line?
**A.** Its relative viability is 0.312.

**Q.** And the relative viability ([2]; first compound 20 µM)?
**A.** The relative viability was 0.316.

**Q.** And the relative viability ([3]; first compound 0.2 µM)?
**A.** The relative viability was 1.

**Q.** What about the relative viability ([3]; first compound 0.6325 µM) of the same cell line?
**A.** The relative viability was 1.03.

**Q.** What about the relative viability ([3]; first compound 2 µM) of the same cell line?
**A.** Its relative viability is 0.954.

**Q.** And the relative viability ([3]; first compound 6.325 µM)?
**A.** The relative viability was 0.94.

**Q.** And the relative viability ([3]; first compound 20 µM)?
**A.** The relative viability was 0.976.

**Q.** And the relative viability ([4]; first compound 0.01 µM)?
**A.** The relative viability was 0.439.

**Q.** What about the relative viability ([4]; first compound 0.03162 µM) of the same cell line?
**A.** The relative viability was 0.511.

**Q.** What about the relative viability ([4]; first compound 0.1 µM) of the same cell line?
**A.** The relative viability was 0.462.

**Q.** What about the relative viability ([4]; first compound 0.3162 µM) of the same cell line?
**A.** The relative viability was 0.483.

**Q.** What about the relative viability ([4]; first compound 1 µM) of the same cell line?
**A.** The relative viability was 0.501.
